Patent US8852876B2, “Label free biosensors and cells” (Corning Incorporated, priority 2008, dated 2014)
Values belong to the molecule of their own block, whether it stands above or below them.

Experiments:
[1] = tested on: endogenous GPCRs in A431 cells; assay: DMR optical biosensor profiling of GPCR agonists; assay type: cell-based, human; details: quiescent A431; first class = Gq-type, second = Gs-type, third = Gi-type, fourth = no significant DMR
Method: Human epidermoid carcinoma A431 cells (American Type Cell Culture) were grown in Dulbecco's modified Eagle's medium (DMEM) supplemented with 10% fetal bovine serum (FBS), 4.5 g/liter glucose, 2 mM glutamine, and antibiotics. ˜3-7.5×10^4 cells at passage 3 to 5 suspended in 200 μl the DMEM medium containing 10% FBS were placed in each well of a 96 well microplate. Similarly ˜1-2×10^4 cells in 50 μl the growth medium were placed in each well of a 384 well microplate. After cell seeding, the cells were cultured at 37° C. under air/5% CO2 until ˜95% confluency was reached (˜2-4 days).
A Corning® Epic™ angular interrogation system with transverse magnetic or p-polarized TM0 mode was used for all studies. Several extra actions were taken to minimize the unwanted effects. First, to minimize the bulk index changes when a compound solution is introduced, 1×HBSS buffer without any probenecid was used to dilute all the compounds, whereas the DMEM buffer only was used to starve the cells. Secondly, to facilitate the cell responses as well as to rapidly reach a steady state when the sensor plates having cells were placed in the system at room temperature, the cells were pre-starved with the DMEM buffer without any FBS for a prolonged period of time (typically 20±2 hours), and the quiescent cells were directly used for assays without any wash.
For kinetics measurements, the cultured cells (˜95% confluency) were starved for about 20 hours with DMEM alone at 37° C. under air/5% CO2. Afterwards, the sensor microplate containing cells was placed into the optical system, and the cell responses were recorded before and after addition of a solution at room temperature. […] All studies were carried out at room temperature with the lid of the microplate on except for a short period of time (˜seconds) when the solution was introduced, in order to minimize the effect of temperature fluctuation and evaporative cooling. The unit of the responses indicated herein was a change in pixel of the central position of the resonant band of each sensor as imaged by a CCD camera; 1 unit equals to ˜5.82×10^−4 refractive index changes, based on an experimental normalization protocol, which uses the concentration-dependent responses of both glycerol and dimethyl sulfoxide.
The panel of agonists were used individually to stimulate quiescent A431 cells. The dose-dependent and kinetic responses were recorded and analyzed. In a typical kinetic measurement, the angular shift of resonant lights of each sensor induced by an agonist is monitored in real time and plotted as a function of time. An increased signal (P-DMR) means an increase in the amount of bio-molecules within the sensing volume (˜120 nm); conversely, a decreased signal (N-DMR) means a decrease in the amount of bio-molecules within the sensing volume. The sensing volume, also known as penetration depth, is an intrinsic property of the coupled light within the waveguide film, which creates an evanescent wave extending into the cell layer and the medium.

[2] = target: T1, protease activated receptors PAR1 and PAR2 (Homo sapiens, UniProt P55085); assay type: cell-based
T1 construct: A431 cells which endogenously express PAR1 and PAR2; endogenous in cells; host or cells: A431
T1 sequence (P55085 26-397): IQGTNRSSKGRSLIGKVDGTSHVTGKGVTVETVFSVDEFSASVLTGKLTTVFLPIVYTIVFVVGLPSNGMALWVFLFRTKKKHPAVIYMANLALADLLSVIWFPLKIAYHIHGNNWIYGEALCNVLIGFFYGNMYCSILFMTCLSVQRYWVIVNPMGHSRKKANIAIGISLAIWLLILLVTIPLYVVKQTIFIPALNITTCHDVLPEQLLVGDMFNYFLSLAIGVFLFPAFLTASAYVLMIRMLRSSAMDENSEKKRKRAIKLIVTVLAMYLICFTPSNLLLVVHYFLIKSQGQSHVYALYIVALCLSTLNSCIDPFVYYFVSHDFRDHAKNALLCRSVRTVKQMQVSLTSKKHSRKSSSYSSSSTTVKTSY
Procedure, shortened: (§1)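 A431 cells at passage 3-5 grown in DMEM/10% FBS at 37° C, 5% CO2 to ~95% confluency (~2-4 days). Compounds and PAR agonists prepared in 1×HBSS to match the refractive index of the cell medium for dynamic mass redistribution (DMR) read-out.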

[3] = tested on: protease activated receptors PAR1 and PAR2; assay type: cell-based, human
Procedure, shortened: as §1

[4] = tested on: protease activated receptors PAR1 and PAR2; assay: Fluo-3 Ca2+ mobilization assay with PAR agonists; assay type: cell-based, human; details: for Concentration required to induce a maximal response: [Ca2+]i; for Effect of preceding stimulation on trypsin-induced [Ca2+]i elevation: 200 nM trypsin; for Maximal [Ca2+]i elevation / EC50: quiescent A431, Fluo-3; for EC50: read-out: EC50 of [Ca2+]i increase
Method: A431 at passage 3 to 5 were grown in Costar™ 96 well clear cell culture microplates until ˜95% confluency, washed twice and starved overnight with the DMEM only, washed with 1×HBSS (1× regular Hank's balanced salt solution, 20 mM HEPES buffer, pH 7.0) in the presence of 2.5 mM probenicid, and labeled in the same buffer containing 4 μM Fluo-3 for 1 hour at room temperature. The cells were then washed twice with buffer, maintained with 100 μl 1×HBSS containing 2.5 mM probenicid. The assay was initiated by transferring 50 μl PAR agonist solution to the cell plate, and calcium signal was recorded over 6 minutes with a 6 sec interval using HTS7000 BioAssay Reader (PerkinElmer Life Science, Boston, Mass.). The assays were carried out at room temperature in order to allow direct comparison with optical sensing data.

[5] = tested on: actin filaments in A431 cells; assay: Texas Red-phalloidin fluorescence imaging; assay type: cell-based, human; details: 100 nM trypsin or 40 unit/ml thrombin; ~95% confluency
Method: Cells were grown on Corning® Epic™ 96 well biosensor microplates, starved for overnight with serum-free DMEM medium, chased with either trypsin or thrombin for certain time, fixed with 4% paraformaldehyde, permeabilized in phosphate-buffered saline (PBS) containing 0.2% Triton, and blocked with 1% bovine serum albumin (BSA). Afterwards, cells were incubated with 0.5 μM Texas Red-labeled phalloidin for 1 h at room temperature, and washed. After final washes and mounting, cells were examined with a 40× objective, equipped in a Zeiss Axioplan fluorescence microscope.

[6] = target: T2, protease activated receptors PAR1 and PAR2 (Homo sapiens, UniProt P25116); assay type: cell-based
T2 construct: A431 cells which endogenously express PAR1 and PAR2; endogenous in cells; host or cells: A431
T2 sequence (P25116 22-425): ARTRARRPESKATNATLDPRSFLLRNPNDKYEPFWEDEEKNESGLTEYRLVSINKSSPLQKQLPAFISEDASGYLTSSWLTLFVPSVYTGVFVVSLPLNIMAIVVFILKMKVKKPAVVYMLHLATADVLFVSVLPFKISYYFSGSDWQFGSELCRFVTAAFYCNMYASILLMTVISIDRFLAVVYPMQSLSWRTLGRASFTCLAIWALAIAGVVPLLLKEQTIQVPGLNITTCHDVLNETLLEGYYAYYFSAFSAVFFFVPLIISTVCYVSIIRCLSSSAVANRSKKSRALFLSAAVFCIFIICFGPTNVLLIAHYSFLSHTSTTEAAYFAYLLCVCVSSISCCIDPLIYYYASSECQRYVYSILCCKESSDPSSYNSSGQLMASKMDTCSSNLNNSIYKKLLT
Procedure, shortened: as §1

quiescent A431 cells [7] = assay: mβCD-induced response (cholesterol effluxing) on LID sensor; assay type: cell-based, human; details: 20 nM EGF or 1000 nM H7; pretreated at least 40 minutes
Text: The disclosed methods can be used to assay cholesterol transport and to, for example, screen for molecules that effect cholesterol transport, such as effluxing and uptake. […] This method is based on the measurement in real time of the effect of compounds on cholesterol effluxing. Depletion of cholesterol content on cell surface or intracellular pool results in the disappearance of microvilli located in the cell surface, resulting in the flatness of cells adherent on a surface. The flatness of cells leads to a positive DMR phase with increased signal. Based on this biological effect, we use reagents, as markers, that can either extract cholesterol from the cell surface (e.g., methyl-beta-cyclodextrin (mβCD), or high density lipoproteins (HDLs)), or bind or sequester cholesterol on the cell surface (e.g., saponin at relatively low concentrations). The changes obtained using optical biosensors can be used as an indicator of modulators that interfere with the cholesterol effuxing. FIG. 27 provides a schematic of a cholesterol pathway.

[8] = tested on: EGF-induced response of quiescent A431 cells; assay: Effect of compound pretreatment on EGF-induced DMR response; assay type: cell-based, human; details: read-out: IC50 for suppression of EGF-induced response (amplitude of N-DMR signal)
Procedure, shortened: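 A431 cells were made quiescent by ≥16 h culture in no or ~0.1% FBS medium. After two HBSS/20 mM HEPES pH 7.4 buffer additions ≥15 min apart, compound was added and then stimulus. Real-time dynamic mass redistribution was tracked by resonant waveguide biosensor with angular interrogation.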

quiescent A431 cells [9] = assay: GPCR agonist-induced DMR and EGFR transactivation; assay type: cell-based, human
Method: Both A431 and CHO-K1 cells were grown in Dulbecco's modified Eagle's medium (DMEM) supplemented with 10% fetal calf serum, 100 μg/ml penicillin, and 100 μg/ml streptomycin. For cell culture, certain numbers of cells (2×10^5 to 1×10^6), either A431 or CHO-K1, were suspended in […] medium were placed in each well of a 96 well Corning Epic Biosensor microplate, and were cultured at 37° C. in air/5% CO2 for certain time until the cell density reached ˜90% and above (unless specified). The resulted cells were termed as “profilerating” cells. The “quiescent” cells were obtained by culturing the profilerating cells of desired confluencies with a medium containing no or little (˜0.1% fetal bovine serum (FBS)) for at least 16 hours.
During the assays, the cells in 100 μl medium were subject to two 25 μl HBSS buffer containing 20 mM HEPES, pH 7.4, each separated by at least 15 minutes before 50 μl stimulus-containing solution was applied. During all these steps, a parallel angular interrogation system was used to monitor the real time kinetics of cellular responses. For compound effect studies, a modified protocol was used which starts with 50 μl medium, and subject to sequential treatment: 25 μl HBSS buffer twice (each separated by at least 15 minutes), 50 μl compound solution and finally 50 μl stimulus-containing solution.

A431 cells = assay: Cell adhesion and spreading on RWG biosensor; assay type: cell-based, human; details: 100 nM; 5% FBS; room temperature
Text: The adhesion and spreading of cells at surfaces were well studied using optical imaging techniques, as well as optical biosensors such as SPR and RWG. […] Subsequently, attached cells undergo morphological changes known as spreading—a process that the cells increase their area in contact with the surface. Both attachment and spreading are dependent on the nature of the surface and of the medium in which the cells are suspended. Since cell adhesion and spreading obviously leads to both vertical and horizontal mass redistribution within the sensing volume, we first characterized the adhesion and spreading of A431 cells in 5% FBS in the absence and presence of vincristine. Vincristine is a plant alkaoid that inhibits microtubule assembly by binding to tubulin.
We studied the adhesion and spreading of A431 cells in 5% FBS in the absence and presence of vincristine at room temperature (25° C.). […] Following the addition of cell solution, there is an immediate and rapid increased signal, which is probably resulted from three events: the increased bulk index from the addition of the cell solution, the immobilization of serum proteins onto the sensor surface, and the sedimentation of cells and subsequent contact of cells with the surface. Afterwards, a prolonged increased signal occurred, indicating the slow process of cell spreading. Ultimately a saturated level was reached. […]

Concentration required to induce a maximal response [4]: 20 µM | Maximal [Ca2+]i elevation [4]: 52±6.3% | EC50 [4]: 3800 ± 400 nM | [Ca2+]i elevation after preceding stimulation with thrombin ([4]; thrombin 40 unit/ml first, interval 6 min): 48.5±3.8%
Molecule: SLIGKV [SLIGKV-amide, PAR2-AP]
Class of optical signature (DMR) induced by agonist [1]: first class of optical signatures | DMR signal after preceding stimulation with thrombin [2]: induced the DMR signal similar to that obtained without the preceding stimulation | Effect of preceding stimulation on trypsin-induced DMR signal ([3]; interval about 1 hour): significantly suppresses but not completely eliminates the trypsin-induced DMR signal | Effect of preceding stimulation on trypsin-induced [Ca2+]i elevation ([4]; interval 6 min): significantly attenuated but not completely eliminates the trypsin-induced [Ca^2+]i elevation

Concentration required to induce a maximal response [4]: 0.4 µM | Maximal [Ca2+]i elevation [4]: 100±6.3% | EC50 [4]: 45.7 ± 5.8 nM | Effect of preceding stimulation on [Ca2+]i elevation by subsequent PAR agonists ([4]; then 40 unit/ml thrombin, 20 μM SFFLR-amide, GLIGKV-amide, GLIGLR-amide or 200 nM trypsin, interval 6 min): induced almost no [Ca^2+]i elevation | Maximal [Ca2+]i elevation relative to thrombin ([4]; trypsin vs thrombin): approximately 2 fold
Molecule: trypsin
Class of optical signature (DMR) induced by agonist [1]: first class of optical signatures | Effect of preceding stimulation on DMR signal induced by PAR-APs ([3]; SFFLR-amide, GLIGKV-amide, GLIGLR-amide, interval about 1 hour): significantly suppressed the DMR signal induced by either of three PAR-APs | Effect of preceding stimulation on DMR signal induced by trypsin or thrombin ([3]; interval about 1 hour): completely eliminated the DMR signal induced by either trypsin (data not shown) or thrombin | Effect of pretreatment on DMR mediated by bradykinin ([3]; interval about 1 hour): little effect on the DMR mediated by bradykinin | Reorganization of actin filaments [5]: triggered significant cytoskeletal reorganization after about 10 min

[Ca2+]i elevation mediated by 200 nM trypsin after pretreatment ([4]; pretreatment with 80 μM, n=5): 48.3±4.5%
Molecule: YFLLRNP [PAR1 specific partial agonist]
DMR signal stimulated by compound alone [6]: only at high doses stimulated significant DMR signals | Effect of pretreatment on PAR2-AP GLIGKV-mediated DMR signal ([2]; SLIGKV-amide 20 μM): no obvious effect on the PAR2-AP GLIGKV-mediated DMR signal | Effect of pretreatment on trypsin-mediated DMR signal ([3]; 100 or 200 nM trypsin, modulators 10 μM): only partially attenuated both SFFLR-amide and trypsin-mediated DMR | Effect of pretreatment on SFFLR-amide-mediated DMR ([3]; SFFLR-amide 20 μM, highest dose examined): only partially attenuated both SFFLR-amide and trypsin-mediated DMR | [Ca2+]i elevation by compound alone ([4]; concentrations up to 160 μM): did not induce any significantly elevation of [Ca^2+]i

Concentration required to induce a maximal response [4]: 20 µM | Maximal [Ca2+]i elevation [4]: 64±3.7% | EC50 [4]: 2500 ± 300 nM
Molecule: SLIGLR [SLIGLR-amide, PAR2-AP]
Class of optical signature (DMR) induced by agonist [1]: first class of optical signatures | DMR signal after preceding stimulation with thrombin [2]: induced the DMR signal similar to that obtained without the preceding stimulation | Effect of preceding stimulation on trypsin-induced DMR signal ([3]; interval about 1 hour): significantly suppresses but not completely eliminates the trypsin-induced DMR signal | Effect of preceding stimulation on trypsin-induced [Ca2+]i elevation ([4]; interval 6 min): significantly attenuated but not completely eliminates the trypsin-induced [Ca^2+]i elevation

Molecule: CC1CNCCN1S(=O)(=O)c1cccc2cnccc12 (stereo not drawn) [H7]
Effect of pretreatment on mβCD-induced response (quiescent A431 cells [7]): led to the suppression of the mβCD-induced response

Molecule: COc1cc2ncnc(Nc3cccc(Cl)c3)c2cc1OC [AG1478, tyrphostin AG1478]
IC50 [8]: ~194 nM | Effect of pretreatment on bradykinin-induced response (quiescent A431 cells [9]; AG1478 10 μM): can only partially attenuate the response | Effect of pretreatment on carbachol- and clonidine-induced response (quiescent A431 cells [9]; AG1478 10 μM): totally abolished the N-DMR phase, and significantly reduced the kinetics of the P-DMR phase

Molecule: CC[C@]1(O)C[C@H]2CN(CCc3c([nH]c4ccccc34)[C@@](C(=O)OC)(c3cc4c(cc3OC)N(C=O)[C@H]3[C@@](O)(C(=O)OC)[C@H](OC(C)=O)[C@]5(CC)C=CCN6CC[C@]43[C@@H]65)C2)C1 [vincristine]
Effect on cell adhesion and spreading signatures (A431 cells): suppressed not only both the initial and total responses, but also reduced the kinetics of cell spreading | Reduction of total change in incident angle vs absence of compound (A431 cells): about 20%

Molecule: Clc1cccc(Cl)c1N=C1NCCN1 [clonidine]
GPCR agonist-induced DMR response curve (quiescent A431 cells [9]; bradykinin 100 nM, carbachol 10 μM, clonidine 1 μM): responses with almost identical features as those induced by low concentrations (2-8 nM) of EGF | Class of optical signature (DMR) induced by agonist [1]: did not exhibited any significant DMR signals
